# No end group written: not given here.
# What was measured:
# Assay type in all cases: cell-based, human
# [1] = system: apolipoprotein A1 production in Hep G2 cells; assay: Production of apolipoprotein A1 in Hep G2 cells, enzyme immunoassay of cultured broth (Example 2); conditions: Conc. 1 μM, 7 hours, control = 100
# Experimental: (§1) First, 1 ml portions of Hep G2 cells at 1×10^5 cells/ml suspended in D-MEM medium containing 10% fetal bovine serum were poured into a 24-well tissue culture plate and cultivation was carried out at 37° C. under atmosphere of a mixed gas composed of 5% carbon dioxide and 95% air for 3 days. Thereafter, the medium was removed by means of a pipette, 1 ml of fresh D-MEM medium was added and cultivation was again carried out at 37° C. under atmosphere of a mixed gas composed of 5% carbon dioxide and 95% air for one day. Then, the medium was removed by means of a pipette and washed three times with 0.5 ml of fresh D-MEM medium. 1 ml of fresh D-MEM medium was added and further 10 μl of a solution of the cyclic depsipeptide of the invention or Compound 1, 4, 5, 6, 7 or 8 dissolved in methanol at the concentration as shown in Table 3 was added. […]
# It was again washed three times with 300 μl of PBS, 100 μl of the above Cultured Broths 7-10 was added and the mixture was allowed to stand at room temperature for 2 hours. […] The reaction was discontinued by the addition of 100 μl of 2N sulfuric acid, and absorbance at 490 nm was measured using absorbance at 650 nm as a control. An absolute amount of apolipoprotein A1 was determined upon a calibration curve drawn up when a commercially available apolipoprotein Al (manufactured by Sigma, U.S.A.) was used as a standard. […]
# [2] = system: apolipoprotein E production in Hep G2 cells; assay: Production of apolipoprotein E in Hep G2 cells, enzyme immunoassay of cultured broth (Example 2: 7 h with compound); conditions: Conc. 1 μM, control = 100
# Experimental: The mouse antihuman apolipoprotein E monocional antibody (manufactured by BYOSIS, S. A., France) was dissolved in a 0.05M aqueous sodium hydrogencarbonate solution (pH 9.5) at a concentration of […]. 50 μl of this solution was poured in portions into a Nunk immunoplate, which was then allowed to stand at 4° C. for 16 hours. After washing thrice with 300 μl of PBS, 300 μl of the blocking solution was added and the mixture was allowed to stand at 37° C. for 2 hours.
# It was again washed three times with 300 μl of PBS, 50 μl of the above cultured broth 1 was added and the mixture was allowed to stand at room temperature for 2 hours. After washing three times with 300 μl of PBS-T, 50 μl of a 3000-fold diluted solution (10% aqueous Block Ace solution) of goat anti-apolipoprotein E polyclonal antibody (manufactured by Chemicon Co., Ltd., U.S.A.) was added and the mixture was allowed to stand at room temperature for 2 hours. […] The reaction was discontinued by the addition of 100 μl of 2N sulfuric acid, and absorbance at 490 nm was measured using absorbance at 650 nm as a control. An absolute amount of apolipoprotein E in cultured broths 1-6 was determined upon a calibration curve drawn up when a commercially available apolipoprotein E (Chemicon Co., Ltd., U.S.A.) was used as a standard. […]
# [3] = system: apolipoprotein B production in Hep G2 cells; assay: Production of apolipoprotein B in Hep G2 cells, enzyme immunoassay of cultured broth (Example 2); conditions: Conc. 1 μM, 7 hours, control = 100
# Experimental: as §1, with “medium.” for “medium. 1 ml of fresh D-MEM medium was added and further 10 μl of a solution of the cyclic depsipeptide of the invention or Compound 1, 4, 5, 6, 7 or 8 dissolved in methanol at the concentration as shown in Table 3 was added.”
# The sheep antihuman apolipoprotein B IgG fraction (manufactured by Bindingsite Co., Ltd., U.K.) was dissolved in a 0.05M aqueous sodium hydrogencarbonate solution (pH 9.5) at a concentration of 10 μg/ml. […] The reaction was discontinued by the addition of 100 μl of 2N sulfuric acid, and absorbance at 490 nm was measured using absorbance at 650 nm as a control. The absorbance obtained was defined as that of apolipoprotein B. An absolute amount of apolipoprotein B was determined upon a calibration curve drawn up when a commercially available low density lipoprotein (manufactured by Sigma, U.S.A.) was used as a standard. […]
substance,measurement,setting,value
"Compound 7 (QLLVDLI; ester (positions not given here); also: cyclic depsipeptide, ring closure places not given here)",Relative amount of apolipoprotein A1 (%),[1],135%
same,Relative amount of apolipoprotein E (%),[2],163%
same,Relative amount of apolipoprotein B (%),[3],76%

# Source: patent publication US6858585B1, “Cyclic depsipeptides and drugs containing the same as the active ingredient” (Nisshin Seifun Group Inc., priority 1996, dated 2005)
